14 molecules from ChEMBL document CHEMBL1201862, “PubChem BioAssay data set” (2004) can be followed below.

What is called IC50 is the concentration needed to halve the response being measured. A word on the EC50: it is the concentration giving half of the maximal effect. Broadly, the AC50 is the concentration at which the activity in the assay is half-maximal.

Active and inactive are the calls of the source.

Assay [1] can be described thus: microbe, parasite or virus in culture. Type of assay: functional. The conditions noted are these: Mycobacterium tuberculosis.
The target of assay [2] is DNA dC->dU-editing enzyme APOBEC-3A (Homo sapiens, UniProt P31941). The experiment in a line: Dose Response confirmation of small molecule APOBEC3A DNA Deaminase Inhibitors via a fluorescence-based single-stranded DNA deaminase assay. [Related pubchem assays (depositor defined):AID493011, AID493024]. Type of assay: functional.
DNA dC->dU-editing enzyme APOBEC-3A, sequence (P31941 whole entry): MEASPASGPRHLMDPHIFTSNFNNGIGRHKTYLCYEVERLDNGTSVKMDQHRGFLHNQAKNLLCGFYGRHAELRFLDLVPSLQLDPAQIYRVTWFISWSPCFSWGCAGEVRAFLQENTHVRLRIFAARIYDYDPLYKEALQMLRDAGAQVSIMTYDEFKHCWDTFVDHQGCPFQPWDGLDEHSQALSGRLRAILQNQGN
Assay [3] concerns the target DNA dC->dU-editing enzyme APOBEC-3G (Homo sapiens, UniProt Q9HC16). Type of assay: functional.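 Also: Dose-response counterscreen measuring inhibition of APOBEC3G DNA deaminase activity, run while confirming APOBEC3A inhibitors.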
The next assay concerns the target Beta-galactosidase (Escherichia coli, UniProt Q8VNN2). Kind of assay: Dose response counterscreen for EBI2 assay utilizing the enzyme, b-galactosidase. It counts as functional. (A counterscreen serves to expose hits that act by an unwanted route or on another target.)
Assay [4] relates to Streptococcus sp. 'group A'. Kind of assay: growth inhibition of control SK(-) GAS strain, dose response, counter-screen for streptokinase expression inhibitor project, luminescence, kanamycin, BacTiterGlo, confirmation (AID 1900). It counts as functional, organism-based.
A further assay concerns the target T1, Streptokinase A (Streptococcus pyogenes serotype M1, UniProt P10520).
T1 sequence (P10520 whole entry): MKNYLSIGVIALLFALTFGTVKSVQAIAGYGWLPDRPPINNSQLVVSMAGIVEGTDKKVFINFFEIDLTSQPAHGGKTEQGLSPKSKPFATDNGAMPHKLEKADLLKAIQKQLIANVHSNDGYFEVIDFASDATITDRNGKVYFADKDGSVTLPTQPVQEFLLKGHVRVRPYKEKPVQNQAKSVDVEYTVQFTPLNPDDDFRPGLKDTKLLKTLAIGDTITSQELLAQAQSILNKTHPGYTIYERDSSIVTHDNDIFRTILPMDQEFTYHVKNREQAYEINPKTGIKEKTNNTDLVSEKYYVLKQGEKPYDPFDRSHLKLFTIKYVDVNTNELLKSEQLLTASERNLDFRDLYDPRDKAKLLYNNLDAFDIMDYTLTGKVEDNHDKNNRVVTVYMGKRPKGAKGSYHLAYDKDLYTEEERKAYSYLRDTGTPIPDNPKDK
The experiment in a line: S. pyogenes streptokinase expression inhibitors, potency, dose response, plasminogen activation absorbance, OD405 (AID 1914).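 Also: secreted streptokinase activity via plasminogen activation per viability signal from cell pellet.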 It counts as functional, Streptococcus pyogenes M1 GAS.

A further assay deals with Streptococcus. The experiment in a line: Group A Streptococcus viability loss, dose response, counter-screen for streptokinase expression inhibitor project, luminescence, BacTiterGlo (AID 1915).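 Also: potency for reduction of bacterial viability or growth.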 Type of assay: functional, organism-based.
Assay [5] is described as follows: inhibitors of HIV Env-driven cell fusion, dose response, cherry-pick (AID 652057). Type of assay: functional, cell-based.
Assay [6] is described as follows: CEM21 lymphoblast cell cytotoxicity, dose response, cytotoxicity control for viral fusion inhibitor project, CellTiter-Glo luminescence, cherry-picked (AID 652042).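 Also: potency for signal decrease meaning cytotoxicity.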 Type of assay: functional, cell-based. (In general: ATP-based viability assays read luminescence as a measure of living cells.)
Assay [7] is described as follows: ZM109 Env clade C HIV-1 fusion inhibitors, dose response, HeLa effector, CEM target cells, luciferase, cherry-pick (AID 652058). Type of assay: functional, cell-based.
Assay [8] is described as follows: off-target signal loss in HeLa-CEM21 co-culture – HeLa F-luc CTL cells, cherry-picked, counter-screen for HIV-1 Env fusion inhibitor project, dose response (AID 652040).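 Also: potency for signal decrease marking cytotoxic or nonspecific inhibition.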 Type of assay: functional, cell-based.
A short description of assay [9]: inhibitors of clade B AD8 Env fusion, dose response, cell-based, cherry-pick (AID 652062).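 Also: luciferase signal from cell-cell fusion driven by HIV-1 clade B AD8 Env; potency is for inhibitors of fusion seen as a drop in luminescence.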 Type of assay: functional.
Another assay addresses T2, Protein skinhead-1 (Caenorhabditis elegans, UniProt P34707).
T2 sequence (P34707 whole entry): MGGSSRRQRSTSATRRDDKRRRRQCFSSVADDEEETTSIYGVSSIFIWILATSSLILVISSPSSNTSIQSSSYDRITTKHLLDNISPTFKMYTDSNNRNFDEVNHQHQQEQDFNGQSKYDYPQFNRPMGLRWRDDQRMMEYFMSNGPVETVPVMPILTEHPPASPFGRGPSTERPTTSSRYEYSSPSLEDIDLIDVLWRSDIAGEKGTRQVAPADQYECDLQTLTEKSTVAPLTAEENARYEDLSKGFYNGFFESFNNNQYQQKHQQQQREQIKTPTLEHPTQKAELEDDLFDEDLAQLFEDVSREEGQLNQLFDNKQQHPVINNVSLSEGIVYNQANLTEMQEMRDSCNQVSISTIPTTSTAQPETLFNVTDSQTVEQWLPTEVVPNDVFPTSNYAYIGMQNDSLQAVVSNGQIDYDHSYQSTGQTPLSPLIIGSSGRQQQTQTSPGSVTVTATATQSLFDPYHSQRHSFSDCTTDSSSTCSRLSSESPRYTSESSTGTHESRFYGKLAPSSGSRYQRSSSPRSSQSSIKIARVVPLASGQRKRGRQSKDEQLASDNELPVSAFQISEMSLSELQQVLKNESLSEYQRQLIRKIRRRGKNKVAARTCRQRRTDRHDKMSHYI
It counts as functional.

A short description of assay [10]: inhibitors of intracellular T. cruzi replication, confirmation, NIH3T3 host cells, beta-gal luminescence (AID 2044).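 Also: intracellular parasites grown in NIH/3T3 mouse fibroblasts as host cells; luminescent beta-galactosidase reporter signal from transgenic T. cruzi replicating inside host cells; inhibitors lower the luminescence signal.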 Type of assay: functional, cell-based.
The nature of assay [11]: cytotoxicity toward NIH3T3 fibroblasts, dose response, counter-screen, cell-based, ATP luminescence, mouse fibroblasts (AID 2010).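 Also: cells exposed to compound for about 90 hours before reading.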 It counts as functional.
The test system of a further assay is INS1. The experiment in a line: beta cell apoptosis inhibitors, cytokine rescue, dose response, luminescence, retest (AID 449756).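 Also: cell death triggered by IL-1 beta plus TNF-alpha plus IFN-gamma mixture; protective hits raise ATP signal compared with cytokine alone wells.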 Type of assay: functional, cell-based. The conditions noted are these: Rattus norvegicus.
In another assay the target is Tumor necrosis factor (Homo sapiens, UniProt P01375). The experiment in a line: TNFa-triggered NF-kB activation inhibitors, SAR follow-up, cell-based, revised (AID 2337). It counts as functional.
Tumor necrosis factor, sequence (P01375 whole entry, the tested form may be a part): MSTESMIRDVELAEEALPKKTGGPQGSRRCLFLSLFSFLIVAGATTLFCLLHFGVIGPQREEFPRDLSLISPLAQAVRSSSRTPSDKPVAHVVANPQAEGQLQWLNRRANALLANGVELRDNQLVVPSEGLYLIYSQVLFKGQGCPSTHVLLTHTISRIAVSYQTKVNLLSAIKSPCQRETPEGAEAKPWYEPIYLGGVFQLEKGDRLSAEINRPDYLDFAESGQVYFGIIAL
In assay [12] the target is T3, Nucleotide-binding oligomerization domain-containing protein 1 (Homo sapiens, UniProt Q9Y239).
T3 sequence (Q9Y239 whole entry): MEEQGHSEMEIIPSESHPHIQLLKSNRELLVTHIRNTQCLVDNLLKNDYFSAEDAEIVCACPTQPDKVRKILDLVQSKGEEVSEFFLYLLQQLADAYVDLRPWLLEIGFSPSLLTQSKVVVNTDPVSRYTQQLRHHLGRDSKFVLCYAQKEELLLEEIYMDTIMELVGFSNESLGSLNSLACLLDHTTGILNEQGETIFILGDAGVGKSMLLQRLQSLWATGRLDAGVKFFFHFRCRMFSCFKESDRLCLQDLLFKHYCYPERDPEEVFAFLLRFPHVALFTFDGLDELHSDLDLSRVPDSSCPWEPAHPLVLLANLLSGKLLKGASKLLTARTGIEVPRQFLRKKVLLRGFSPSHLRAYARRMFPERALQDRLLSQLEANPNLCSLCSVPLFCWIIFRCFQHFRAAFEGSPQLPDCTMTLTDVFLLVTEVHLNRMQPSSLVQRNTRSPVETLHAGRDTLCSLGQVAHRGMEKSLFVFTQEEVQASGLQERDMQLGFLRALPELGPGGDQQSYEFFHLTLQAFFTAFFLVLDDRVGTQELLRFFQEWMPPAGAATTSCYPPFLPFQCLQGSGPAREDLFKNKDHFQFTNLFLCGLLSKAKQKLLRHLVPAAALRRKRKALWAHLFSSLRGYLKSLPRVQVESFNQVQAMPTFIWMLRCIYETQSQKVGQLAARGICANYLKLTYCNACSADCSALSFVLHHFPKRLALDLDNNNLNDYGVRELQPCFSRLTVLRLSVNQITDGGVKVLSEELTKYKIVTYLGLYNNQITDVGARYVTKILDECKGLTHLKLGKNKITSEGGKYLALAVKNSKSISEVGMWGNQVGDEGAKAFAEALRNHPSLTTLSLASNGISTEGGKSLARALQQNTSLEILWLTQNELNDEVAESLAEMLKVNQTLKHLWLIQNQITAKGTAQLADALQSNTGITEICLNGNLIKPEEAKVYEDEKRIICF
Kind of assay: NOD1 signaling inhibitors, SAR follow-up, revised (AID 2333). It counts as functional.

A short description of assay [13]: cytotoxicity in HEK-293T cells, dose response, cytotoxicity control for TCR NF-kB inhibitor project, luminescence, T-cell screen hits (AID 489026).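 Also: cells exposed to compound about 14 hours before the viability readout.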 Type of assay: functional, cell-based.
Another assay deals with HEK293. Kind of assay: cells. The conditions noted are these: Homo sapiens.

Beta-galactosidase, sequence (Q8VNN2 whole entry): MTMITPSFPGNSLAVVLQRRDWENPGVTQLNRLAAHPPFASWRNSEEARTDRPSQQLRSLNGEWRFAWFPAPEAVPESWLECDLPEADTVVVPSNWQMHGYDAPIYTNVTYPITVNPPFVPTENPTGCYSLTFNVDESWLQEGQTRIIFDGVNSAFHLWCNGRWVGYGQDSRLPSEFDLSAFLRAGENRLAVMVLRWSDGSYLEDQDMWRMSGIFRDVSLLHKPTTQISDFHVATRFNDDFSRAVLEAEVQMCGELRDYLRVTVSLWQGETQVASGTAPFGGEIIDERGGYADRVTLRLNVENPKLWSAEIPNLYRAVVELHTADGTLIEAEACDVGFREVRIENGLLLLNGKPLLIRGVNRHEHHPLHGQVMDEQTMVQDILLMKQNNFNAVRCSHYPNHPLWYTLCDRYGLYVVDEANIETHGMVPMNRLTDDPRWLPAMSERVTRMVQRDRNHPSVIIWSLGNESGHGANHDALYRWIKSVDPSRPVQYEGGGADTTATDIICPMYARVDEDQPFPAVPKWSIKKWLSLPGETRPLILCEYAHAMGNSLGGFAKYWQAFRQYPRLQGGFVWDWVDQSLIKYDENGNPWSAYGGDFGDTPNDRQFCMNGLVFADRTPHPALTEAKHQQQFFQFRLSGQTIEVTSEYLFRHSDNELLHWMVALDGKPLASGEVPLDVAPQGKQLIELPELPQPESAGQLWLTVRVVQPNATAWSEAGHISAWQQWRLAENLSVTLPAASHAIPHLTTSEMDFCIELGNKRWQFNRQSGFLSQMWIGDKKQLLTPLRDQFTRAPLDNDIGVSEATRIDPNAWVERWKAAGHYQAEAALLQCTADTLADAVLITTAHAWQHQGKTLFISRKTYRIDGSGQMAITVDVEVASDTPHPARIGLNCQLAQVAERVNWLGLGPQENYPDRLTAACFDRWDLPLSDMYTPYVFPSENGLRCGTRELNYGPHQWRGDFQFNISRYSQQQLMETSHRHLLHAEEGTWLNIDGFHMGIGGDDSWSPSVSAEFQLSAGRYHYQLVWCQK
DNA dC->dU-editing enzyme APOBEC-3G, sequence (Q9HC16 whole entry): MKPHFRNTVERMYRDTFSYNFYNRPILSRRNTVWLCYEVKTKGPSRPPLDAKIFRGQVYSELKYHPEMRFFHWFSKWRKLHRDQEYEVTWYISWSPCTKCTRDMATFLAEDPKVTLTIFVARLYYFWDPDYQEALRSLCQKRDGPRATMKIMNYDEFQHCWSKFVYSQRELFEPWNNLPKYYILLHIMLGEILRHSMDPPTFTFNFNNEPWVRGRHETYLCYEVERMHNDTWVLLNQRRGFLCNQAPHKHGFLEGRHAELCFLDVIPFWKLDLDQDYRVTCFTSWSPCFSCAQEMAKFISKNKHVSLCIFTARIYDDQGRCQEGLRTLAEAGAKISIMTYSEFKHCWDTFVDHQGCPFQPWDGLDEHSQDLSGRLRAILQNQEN

Take `CC(C)(C)c1ccc(C2C3=C(CCCC3=O)N=C3C2=C(O)c2ccccc23)cc1` (stereo unspecified): in assay [1], the CC50 is > 40 µM (active).

For `CN(Cc1ccccc1)C(=O)c1ncn(C)c1C(=O)N(C)Cc1ccccc1`, the IC50 in assay [2] is 3.15 µM (active); in assay [3], > 100 µM (inactive).

Turning to `CCOC(=O)N(C)c1c(CC)nc2c(OCc3ccc(Cl)cc3Cl)cccn12`, the IC50 at Beta-galactosidase was 121 µM (inactive).

Regarding `CCN1C(NCCOC)=N[C@@H](c2ccccc2)[C@H](C(=O)OC)[C@H]1C`, the IC50 is 4.47 µM (active) in assay [2] and 4.28 µM (active) in [3].

For `CN1CC(c2ccc(Cl)c(Cl)c2)[C@@]2(COc3ccccc3C2=O)[C@@]12C(=O)Nc1ccccc12` (stereo partly specified), the EC50 in [4] is 2.96 µM (active); at Streptokinase A it was 1.55 µM (active); in the assay on Streptococcus, > 150 µM (not active). The AC50 was 9.06 µM (active) in assay [5]; 45.7 µM (active) in assay [6]; 9.1 µM (active) in assay [7]; 14.7 µM (active) in [8]; 31.3 µM (active) in assay [9].

`Cc1ccc(/C=C2/SC(Nc3ccc(F)cc3)=NC2=O)s1`: the IC50 in assay [2] is 3.22 µM (active); in assay [3], 7.58 µM (active); at Protein skinhead-1 it was > 100 µM (inactive).

On to `CC1(C)CC(N2CCN(c3ccccc3)CC2)=CC(=[N+]2CCCC2)C1`, for which the 50% effective concentration (EC50) in [10] is 0.263 µM (active); in assay [11] it was > 60 µM (not active). Besides, the results for the IC50 in assay [2] and in [3] were 2.15 µM (active) and 2.24 µM (active), respectively. Moreover, the AC50 with INS1 was 1.81 µM (active).

As to `CCc1ccc(CN(C)C(=O)c2cc(=O)c3ccccc3o2)cc1`, the IC50 on Beta-galactosidase is > 80 µM (inactive).

Consider `CCOC(=O)N1CCN(C(=O)c2cc3c(O)nc4ccccc4c3s2)CC1`, for which the IC50 at Beta-galactosidase was > 80 µM (inactive).

Take `COc1ccc2[nH]c(=O)c(CN(C(=O)c3ccco3)C(C)C)cc2c1`: the IC50 in assay [2] is 6.26 µM (active); in [3], 6.32 µM (active).

Consider `CC(=O)Nc1ccc(Nc2cc(C)nc(Nc3ccc(NC(C)=O)cc3)n2)cc1`, for which the IC50 is 11 µM (active) in assay [2] and 16.4 µM (active) in [3].

In the case of `Cc1sc2nc(C3CC3)nc(N3CCN(C(=O)c4ccc(Cl)cc4)CC3)c2c1C`, the IC50 on Beta-galactosidase was > 80 µM (inactive).

Regarding `CC(=O)c1ccc(N2CCN(S(=O)(=O)c3ccc4c(c3)CC(C)N4C(=O)C3CC3)CC2)cc1` (stereo unspecified), the half-inhibitory concentration (IC50) on Tumor necrosis factor was 3.18 µM (active); in assay [12] it was 8.77 µM (active); in [13], > 80 µM (inactive); in the assay with HEK293 it was > 20 µM (inactive).

As to `CCOC(=O)c1cnc(Nc2nc3ccccc3o2)nc1CSC(=S)N(CC)CC`, the EC50 in assay [10] is 0.17 µM (active); in assay [11], > 60 µM (not active). The CC50 in assay [1] was 28 µM (active).
